Values quoted from earlier work, collected in patent US10231947B2, “Isochroman compounds and methods of use thereof” (ARIZONA BOARD OF REGENTS ON BEHALF OF ARIZONA STATE …, priority 2017, dated 2019).

Key:
hRXRβ = hRXRβ (Homo sapiens, UniProt P28702); details: read-out: EC50 for the hRXRβ isoform
hRXR [1] = details: Caco-2 cells
hRXR [2] = details: Caco-2 cells; remark: listed apart in the source

Sequence of hRXRβ (P28702 whole entry, canonical isoform): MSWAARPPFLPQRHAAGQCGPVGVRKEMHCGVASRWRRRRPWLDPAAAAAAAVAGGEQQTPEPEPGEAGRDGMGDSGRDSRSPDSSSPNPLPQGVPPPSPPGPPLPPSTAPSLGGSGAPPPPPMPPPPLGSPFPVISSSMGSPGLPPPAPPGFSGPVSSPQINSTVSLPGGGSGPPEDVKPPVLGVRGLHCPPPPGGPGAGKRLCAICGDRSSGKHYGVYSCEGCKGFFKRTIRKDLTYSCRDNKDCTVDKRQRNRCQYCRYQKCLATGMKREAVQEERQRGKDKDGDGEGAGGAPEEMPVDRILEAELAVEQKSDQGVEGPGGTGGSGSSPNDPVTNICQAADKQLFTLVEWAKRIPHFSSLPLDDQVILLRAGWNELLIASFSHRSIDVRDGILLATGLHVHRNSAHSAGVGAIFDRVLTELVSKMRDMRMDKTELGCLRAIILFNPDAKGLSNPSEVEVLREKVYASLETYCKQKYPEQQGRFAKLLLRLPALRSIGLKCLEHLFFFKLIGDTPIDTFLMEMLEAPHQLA

In the case of `Cc1cc2c(cc1-c1cc(/C=C/C(=O)O)ccc1O)C(C)(C)CCC2(C)C` [CD3254], the EC50 (hRXRβ) is given as about 10 nM.
For `C=C(c1ccc(C(=O)O)c(F)c1)c1cc2c(cc1C)C(C)(C)CCC2(C)C` [compound 3], the EC50 (hRXR [1]) is listed as 43 nM and the Kd (hRXR [2]) is listed as 12 nM.
